Test results from US9006221B2, “Method of modulating ship activity” (H. Lee Moffitt Cancer Center and Reserach Institute, Inc., priority 2008, dated 2015).

Tests used:
[1] = tested on: NK1.1+CD3- NK cells; assay: NK cell compartment in spleens of treated mice; assay type: in vivo, mouse; settings: mice treated daily for 6 days, spleen on day 7
Method: Mice were treated daily for 6 days with either NSC13480, vehicle alone (Vehicle) or were non-manipulated (Normal). On the 7th day the spleens of the mice were analyzed for NK cell content (NK1.1+CD3− cells) and for expression of the MHC-I inhibitory receptor Ly49G2.
SHIP-deficiency expands the peripheral NK compartment and disrupts the repertoire of receptors elaborated by NK cells that recognize MHC-I ligands. The NK cell compartment was examined in NSC13480-treated mice to determine if inhibition of SHIP enzymatic activity in vivo could also lead to similar disruptions in the NK cell compartment. […] Ly49G2 is an MHC-I inhibitory receptor shown to be under-represented in SHIP^−/− mice.
Antibody staining and flow cytometry (Examples 1-6): Anti-CD16/32 was co-incubated with the samples to block Fc receptor binding. Antibodies used for staining included: NK1.1 (PK136); CD3e (145-2C11); Ly49G2 (4D11); Gr-1 (RB6-8C5); Mac-1(M1/70); CD11c (HL3); CD4 (GK1.5); CD25 (PC61) and were obtained from BD Pharmingen (San Jose, Calif.). FoxP3 (FJK-16s) was purchased from eBioScience (San Diego, Calif.). All samples were acquired on a FACSCalibur and analyzed using FlowJo8.7.1. For viable staining, dead cells were excluded from the analysis following cytometer acquisition of data by exclusion of the 7AAD dye. […]

[2] = tested on: KG-1 AML cells; assay: MTT cell viability assay, KG1; assay type: cell-based, human; settings: KG-1, expresses SHIP1, 36 hours
Method: (A) SHIP1 expression in KG1 and MG63 cells was determined by Western blotting (top). Membranes were reprobed with antibodies against b-actin to confirm equal loading (lower panel). One representative blot of 2 individual experiments is shown. (B) KG1 and MG63 cells were plated in duplicate in 96 well plates, and treated for 36 hours with increasing concentrations of the 3α-aminocholestane. Cell viability was assessed by MTT assay. Results represent the mean of three individual experiments. (C) KG1 cells were treated with increasing concentrations of 3α-aminocholestane for 36 hours and hallmarks of apoptosis were identified in cell lysates by Western Blot analysis. […] (D) KG1 cells were treated with increasing concentrations of 3α-aminocholestane, and the percentage of AnnexinV and PI positive cells was determined by FACS analysis. […]
Cell viability assay: Cells were treated in duplicate for 36 hours with increasing concentrations of 3α-aminocholestane or vehicle. […] Formed crystals were dissolved in dimethyl sulfoxide and optical density (OD) was measured at 570 nm. The OD of compound treated cells was divided by the OD of their vehicle control, and the viability was expressed as a percentage of untreated cells. Results are expressed as mean±SEM of three individual experiments.

Structure (SMILES) | frequency of Ly49G2+ NK cells [1] | splenic NK cell numbers [1] | growth and survival of cells (MTT viability) [2]
OC(c1cc(-c2ccccc2)nc2c1ccc1ccccc12)C1CCCCN1 (stereo not drawn) [NSC13480, (2-phenylbenzo[h]quinolin-4-yl)-piperidin-2-ylmethanol] | much reduced frequency | significant increase | –
CC(C)CCC[C@@H](C)[C@H]1CC[C@H]2[C@@H]3CC[C@H]4C[C@H](N)CC[C@]4(C)[C@H]3CC[C@]12C [NSC23922, (3R,5S,8R,9S,10S,13R,14S,17R)-10,13-dimethyl-17-[(2R)-6-methylheptan-2-yl]-2,3,4,5,6,7,8,9,11,12,14,15,16,17-tetradecahydro-1H-cyclopenta[a]phenanthren-3-amine] | – | – | decreases the growth and survival
